The record followed here is publication PMC12052742, “Engineering a newly identified alcohol dehydrogenase from Sphingobium Sp. for efficient utilization of nicotinamide cofactors biomimetics” (Bioresources and Bioprocessing, 2025).

What all share (type): biochemical, Sphingobium sp. SYK-6
The test system of assay [1] is SpADH2. Put plainly: Cofactor spectrum of syringyl alcohol oxidation (HPLC specific activity), WT. To be noted: 1a 5 mM, cofactor 7.5 mM, pH 7.5, 30℃; for utilization of the tsNCB by SpADH2 (in words) / activity of SpADH2 with the tsNCB as cofactor: 5 µg SpADH2, 1 h; for decrease in activity compared with NAD^+ as cofactor: 0.05 µg SpADH2. As for the experimental part: Fig. 2 Cofactor spectrum of syringyl alcohol oxidation catalyzed by SpADH2. The darkness of the background color for each cofactor stands for the activity of SpADH2 utilizing various cofactors. (a) NAD(P) ^+ and NMN^+ are shown in purple background. (b) tsNCBs are shown in cyan background. The evaluation of cofactor spectrum of SpADH2 was carried out under following conditions: 50 mM PBS buffer (pH 7.5) and 30℃, with 1a (5 mM) as substrate and different cofactors (7.5 mM) as cofactor. For NAD(P)^+ and NMN^+, 0.05 µg SpADH2 was added, and for tsNCBs, 5 µg SpADH2 was added. The results were analyzed by HPLC after 1 h reaction
(§1) Specific activity of SpADH2 in cofactor spectrum study was determined by HPLC analysis. PBS (pH 7.5) buffer was pre-heated at 30°C for 15 min. For NAD(P)^+ and NMN^+, 0.05 µg SpADH2 was added to PBS buffer (100 µL). For tsNCBs, 5 µg SpADH2 was added. A final concentration of 7.5 mM cofactor was added to the reaction mixture. Finally, a final concentration of 5 mM substrate was added to start the reaction. The reactions were conducted at 30°C.
(§2) One unit of enzyme activity is defined as the amount of enzyme required to form 1 µmol 1b per minute at pH 7.5 and 30°C. Same reaction without cofactor was used as a blank control.

Assay [2] deals with SpADH2 variants (H43L, A290I, H43L/A290I). Put plainly: Cofactor spectrum (HPLC specific activity), all variants together. To be noted: 1a 5 mM, cofactor 7.5 mM, pH 7.5, 30℃. As for the experimental part:
(§3) Fig. 8 Cofactor spectrums of SpADH2 and its variants. The darkness of color for each cofactor stands for the activity. For each cofactor cube, top left: WT, top right: H43L, bottom left: A290I, bottom right: H43L/A290I. (a) Natural cofactors and NMN^+ are shown in purple. (b) tsNCBs are shown in cyan. The evaluation of cofactor spectrum was carried out under following conditions: 50 mM PBS buffer (pH 7.5) and 30℃, with 1a (5 mM) as substrate and different cofactors (7.5 mM) as cofactor. For NAD(P)^+ and NMN^+, 0.05 µg enzyme was added, and for tsNCBs, 5 µg enzyme was added. The results were analyzed by HPLC after 1 h reaction
as §1, §2

Another assay has as its system SpADH2 variant A290I. Put plainly: Cofactor spectrum (HPLC specific activity), variant A290I. To be noted: 1a 5 mM, cofactor 7.5 mM, pH 7.5, 30℃, 5 µg enzyme. As for the experimental part: as §3, §1, §2
Assay [3] concerns SpADH2. Put plainly: Substrate spectrum (spectrophotometric specific activity, fluorescent probe). To be noted: substrate 5 mM, 1 h; for substrate preference of SpADH2 (in words): cofactor p-BANA^+ 7.5 mM, 5 µg SpADH2, pH 7.5, 30℃; for specific activity of SpADH2 toward the substrate: cofactor NAD^+ 2 mM, 0.05 µg SpADH2, pH 7.5, 30℃. As for the experimental part: Fig. 3 Substrate spectrum of SpADH2 utilizing (a) NAD^+ and (b) p-BANA^+. The darkness of the background color for each substrate stands for the activity of SpADH2 with NAD^+ (purple) or p-BANA^+ (cyan) as cofactor. The evaluation of substrate spectrum of SpADH2 was carried out under following conditions: 50 mM PBS buffer (pH 7.5) and 30℃, with 1a (5 mM) as substrate. For NAD^+(2 mM), 0.05 µg SpADH2 was added, and for p-BANA^+(7.5 mM), 5 µg SpADH2 was added. After 1 h, reactions were visualized by 0.2 mM florescent probes (2-[2-(1,4-dihydro-1-methyl-3-quinolinyl)ethenyl]-1,3,3-trimethyl-3H-indolium)
Specific activity of SpADH2 in substrate spectrum study was measured spectrophotometrically. PBS (pH 7.5) buffer was pre-heated at 30°C for 15 min. For NAD^+, 0.05 µg SpADH2 was added to the PBS buffer (100 µL), and a final concentration of 2 mM NAD^+ was added. For tsNCBs cofactor p-BANA^+, 5 µg SpADH2 and a final concentration of 7.5 mM p-BANA^+ was added. The mixture was carried out in a 96-well microplate, and a final concentration of 5 mM substrate was added to start the reaction. The microplate was incubated in 30°C for 1 h. Florescent probes (2-[2-(1,4-dihydro-1-methyl-3-quinolinyl)ethenyl]-1,3,3-trimethyl-3H-indolium) in a final concentration of 0.2 mM (100 µL) was added (Scheme S1), and the microplate was placed in a microplate reader immediately for measurement under 537 nm (Fomin et al. [2016]).
One unit of enzyme activity is defined as the amount of enzyme required to form 1 µmol of reduced florescent probes per minute at pH 7.5 and 30°C. Each reaction was repeated in triplet. Same reaction without substrate was used as a blank control. The molar absorbance coefficient (ε) was detected as […] with NADH as the reduced cofactor and 60,801 µM^− 1·cm^− 1 with p-BANAH as the reduced cofactor.

In assay [4] the test system is SpADH2. Put plainly: Preliminary evaluation of NCB usage in oxidation of syringyl alcohol (HPLC). As to conditions: preliminary assay: 1a 1 mM, NCB 10 mM, pH 7.0, 30℃, 1 h. As for the experimental part:
Sphingobium sp. SYK-6 belongs to genus Sphingomonas, and a search in UniProtKB identified 19 ADHs from this strain, including 5 PQQ-dependent and the remaining NAD^+/NADP^+-dependent enzymes. Two sequences annotated as aryl-alcohol dehydrogenases (SLG_34580 and SLG_24930) (Table. S1) were selected for heterologous expression (Fig. S1) and named SpADH1 and SpADH2, respectively. Their ability to utilize NCBs was assessed by oxidation of syringyl alcohol (1a) to produce syringaldehyde (1b) (Fig. 1a).
Fig. 1 (a) Reaction scheme of SpADH2-catalyzed oxidation of syringyl alcohol. (b) Specific activity of SpADH2 toward four NCBs. The evaluation of NCBs usage by SpADH2 was carried out under following conditions: 50 mM PBS buffer (pH 7.0) and 30℃, with 1a (1 mM) as substrate and 4 typical NCBs (10 mM) as cofactor. A total of 0.1 mg/mL enzyme was added to a 200 µL reaction mixture, and was analyzed by HPLC after 1 h reaction
Reaction samples were analyzed using Agilent 1260 Infinity II LC system under reversed phase condition. Column: Agilent C18 column. Analytical conditions for 1a and 1b: mobile phase: 50% water: 50% acetonitrile. The retention time for standard product 1b was 3.27 min, under flow rate of 1 mL·min^− 1and temperature of 30°C (Fig. S4).

Structures are written as SMILES.

Consider `Cc1ccc(C[n+]2cccc(C(N)=O)c2)cc1` [p-BMNA^+, para-3-carbamoyl-1-(4-methylbenzyl)pyridin-1-ium], for which the “utilization of the tsNCB by SpADH2 (in words)” value in the assay with SpADH2 [1] was “No detectable activity”. For the compound `NC(=O)c1ccc[n+](Cc2cccc(C(=O)O)c2)c1` [m-BANA^+, meta-3-carbamoyl-1-(3-carboxybenzyl)pyridin-1-ium], the “catalytic activity of all variants with the cofactor (in words)” value (shortened to “catalytic activity of all variants”) in assay [2] is “highest activity”. Further, the “catalytic activity with the tsNCB as cofactor” value with SpADH2 variant A290I (1 h) stood at 118.11 U/g.

Consider `NC(=O)c1ccc[n+](Cc2ccc([N+](=O)[O-])cc2)c1` [p-BNNA^+], for which, in the assay with SpADH2 [1], the “activity of SpADH2 with the tsNCB as cofactor” value is given as 2.25 U/g. In the assay with SpADH2 variant A290I, the “utilization of the tsNCB (in words)” value is listed as “capable of utilizing”. For the compound `NC(=O)c1ccc[n+](Cc2cccc([N+](=O)[O-])c2)c1` [m-BNNA^+, meta-3-carbamoyl-1-(3-nitrobenzyl)pyridin-1-ium], in the assay with SpADH2 [1], the “utilization of the tsNCB by SpADH2 (in words)” value is reported as “not effectively utilized”. Besides, the “utilization of the tsNCB (in words)” value in the assay on SpADH2 variant A290I was “capable of utilizing”. On to `COc1cc(CO)cc(OC)c1O` [syringyl alcohol], for which the “substrate preference of SpADH2 (in words)” value (from here on “substrate preference”) in the assay on SpADH2 [3] is reported as “optimal substrate”. In the case of `NC(=O)c1ccc[n+](Cc2ccccc2)c1` [BNA^+, 1-benzyl-3-carbamoylpyridin-1-ium], in the assay on SpADH2 [4], the “utilization of the NCB by SpADH2 (in words)” value was “Appreciable activity”.

With `Cc1ccccc1C[n+]1cccc(C(N)=O)c1` [o-BMNA^+, ortho-3-carbamoyl-1-(2-methylbenzyl)pyridin-1-ium], the “utilization of the tsNCB by SpADH2 (in words)” value in the assay on SpADH2 [1] is “No detectable activity”. With `NC(=O)c1ccc[n+]([C@@H]2O[C@H](COP(=O)(O)OP(=O)([O-])OC[C@H]3O[C@@H](n4cnc5c(N)ncnc54)[C@H](OP(=O)(O)O)[C@@H]3O)[C@@H](O)[C@H]2O)c1` [NADP^+, reference compound], in assay [2], the “catalytic activity of all variants” value was “relatively lower catalytic activity”. For the same compound, in the assay with SpADH2 [1], the “decrease in activity compared with NAD^+ as cofactor” value is given as “roughly 50%”.

`OCc1ccsc1` [3-thiophenemethanol]: in the assay with SpADH2 [3], the “specific activity of SpADH2 toward the substrate” value amounted to 4.78 U/mg and the “substrate preference” value was “No significant preference”. As to `NC(=O)c1ccc[n+](Cc2ccccc2Br)c1` [o-BBrNA^+], the “activity of SpADH2 with the tsNCB as cofactor” value with SpADH2 [1] is 1.3 U/g.

Turning to `NC(=O)c1ccc[n+](Cc2ccccc2[N+](=O)[O-])c1` [o-BNNA^+], the “activity of SpADH2 with the tsNCB as cofactor” value in the assay on SpADH2 [1] is reported as 1.92 U/g. In addition, the “utilization of the tsNCB (in words)” value with SpADH2 variant A290I is “capable of utilizing”.

In the case of `NC(=O)c1ccc[n+]([C@@H]2O[C@H](COP(=O)([O-])O)[C@@H](O)[C@H]2O)c1` [NMN^+, nicotinamide mononucleotide, reference compound], the “catalytic activity of all variants” value in assay [2] is reported as “relatively lower catalytic activity”. The “decrease in activity compared with NAD^+ as cofactor” value in the assay on SpADH2 [1] was “roughly 50%”. Turning to `OCc1ccccc1` [benzyl alcohol], in the assay on SpADH2 [3], the “specific activity of SpADH2 toward the substrate” value was 4.71 U/mg and the “substrate preference” value is recorded as “No significant preference”.
